Results published in patent publication US11685747B2, “Compounds that inhibit MCL-1 protein” (AMGEN INC., priority 2014, dated 2023).

Key:
[1] = molecular target: T1, Mcl-1/Bak protein-protein interactions (Homo sapiens, UniProt Q07820); assay: Cell-based split luciferase complementation assay; details: HEK 293 M cells, serum-free, 4 h
T1 construct: expressed in transfected cells; host or cells: HEK 293 M cells, transient transfection
Method: Cell-Based Assay (Split Luciferase)
A split luciferase complementation assay was developed to determine the inhibition of Mcl-1/Bak protein-protein interactions in cells. […] Transient transfection was performed using Lipofectamine® LTX/Plus™ reagent (Life Technologies, Grand Island, N.Y.). 24 h after transfection, cells were collected using non-enzyme based cell dissociation buffer StemPro® Accutase® (Life Technologies), and resuspended in serum-free Opti-MEM® (Life Technologies). Cells were then seeded into assay plates with serially diluted test compounds in 0.3% DMSO at density of a 5000 cells/well. Cells were then incubated for 4 h at 37° C. in a cell culture incubator supplement with 5% CO2. Test plates were equilibrated to room temperate for 30 min before addition of 30 μL Steady-Glo® Luciferase assay reagent (Promega, Madison, Wis.) into each test well. Luminescence was determined using an EnVision® Multilabel plate reader 25 min after the addition of detection reagent. IC50 values were then calculated with Xlfit using a logistical 4-parameter fit model in GraphPad Prism (GraphPad Software, San Diego, Calif.) or in Genedata Screener® (Genedata, Basel, Switzerland).

[2] = tested on: OPM-2; assay: Cell viability assay (OPM-2 10 FBS, CellTiter-Glo); assay type: cell-based, human; details: OPM-2 cells
Method: Cell Viability Assay (OPM-2 10 FBS)
Cells were seeded into 384-well plates at 3000 cells/well density in complete growth medium containing 10% FBS, and incubated for 16 h with serially diluted test compounds in a 37° C. incubator with 5% CO2. Cell viability was tested using CellTiter-Glo® assay (Promega, Madison, Wis.) according to the manufacturer recommendations. Luminescence was determined using an EnVision® Multilabel plate reader 25 min after the addition of detection reagent. IC50 values were then calculated with Xlfit using a logistical 4-parameter fit model in GraphPad Prism (GraphPad Software, San Diego, Calif.) or in Genedata Screener® (Genedata, Basel, Switzerland).

[3] = molecular target: T2, recombinant human Mcl-1 (Homo sapiens, UniProt Q07820); assay: Cell free Mcl-1:Bim affinity assay (Mcl-1 HTRF, TR-FRET); assay type: binding; details: inhibition of Mcl-1/Bim interaction
T2 construct: C-terminally 6×His tagged Mcl-1 containing residues 171-327; made in house
T2 sequence (Q07820 171-327): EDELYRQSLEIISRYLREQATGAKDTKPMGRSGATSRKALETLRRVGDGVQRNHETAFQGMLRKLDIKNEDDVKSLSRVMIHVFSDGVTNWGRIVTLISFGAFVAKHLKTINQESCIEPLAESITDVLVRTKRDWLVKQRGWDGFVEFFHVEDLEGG
Method: Cell Free Mcl-1:Bim Affinity Assay (Mcl-1 HTRF)
The inhibition of the Mcl-1/Bim interaction was measured using a time-resolved fluorescence resonance energy transfer (TR-FRET) assay. […] A biotinylated peptide derived from human Bim (residues 51-76) was purchased from CPC Scientific (San Jose, Calif.). The TR-FRET assay was conducted in a 384-well white OptiPlate™ (PerkinElmer, Waltham, Mass.) in a total volume of 40 μL. […] The reaction plates were further incubated overnight and then were read on an Envision® multimode reader (PerkinElmer). […] The IC50 values of test compounds were determined from duplicate data by analyzing competition curves using a four-parameter sigmoidal model in GraphPad Prism (GraphPad Software, San Diego, Calif.) or in Genedata Screener® (Genedata, Basel, Switzerland).

T1 sequence (Q07820 whole entry): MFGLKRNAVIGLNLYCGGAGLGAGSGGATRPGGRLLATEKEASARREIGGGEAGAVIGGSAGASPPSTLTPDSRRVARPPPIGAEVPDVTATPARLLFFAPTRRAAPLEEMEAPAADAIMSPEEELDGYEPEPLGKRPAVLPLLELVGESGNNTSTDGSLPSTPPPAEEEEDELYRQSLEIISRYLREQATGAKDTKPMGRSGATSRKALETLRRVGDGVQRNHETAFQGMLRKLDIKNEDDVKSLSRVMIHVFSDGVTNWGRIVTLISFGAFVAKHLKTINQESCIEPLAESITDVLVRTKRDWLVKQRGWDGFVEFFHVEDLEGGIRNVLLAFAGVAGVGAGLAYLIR

SMILES | IC50 [1] [nM] | IC50 [3] [nM] | IC50 ([2]; 16 h) [nM] | IC50 ([2]; Homo sapiens, OPM-2, 16 h) [nM]
CC[C@@H]1CC/C=C/[C@H](OCCOC)[C@@H]2CC[C@H]2CN2C[C@@]3(CCCc4cc(Cl)ccc43)COc3ccc(cc32)C(=O)NS1(=O)=O [Example 75, (1S,3′R,6′R,7′S,8′E,12′R)-6-Chloro-12′-Ethyl-7′-(2-Methoxyethoxy)-3,4-Dihydro-2H,15′H-Spiro[Naphthalene-1,22′-[20]Oxa[13]Thia[1,14]Diazatetracyclo[14.7.2.0^3,6.0^19,24]Pentacosa[8,16,18,24]Tetraen]-15′-One 13′,13′-Dioxide] | 159 | 2.83 | – | 2560
CC(C)C[C@@H]1[C@@H](C)C/C=C/[C@H](O)[C@@H]2CC[C@H]2CN2C[C@@]3(CCCc4cc(Cl)ccc43)COc3ccc(cc32)C(=O)NS1(=O)=O (single isomer, unassigned) [Example 66] | 224 | 2.12 | 2330 | –
CO[C@H]1CCCC[C@@H](C)S(=O)(=O)NC(=O)c2ccc3c(c2)N(C[C@@H]2CC[C@H]21)C[C@@]1(CCCc2cc(Cl)ccc21)CO3 [Example 16, (1S,3′R,6′R,7′S,12′R)-6-Chloro-7′-Methoxy-12′-Methyl-3,4-Dihydro-2H,15′H-Spiro[Naphthalene-1,22′-[20]Oxa[13]Thia[1,14]Diazatetracyclo[14.7.2.0^3,6.0^19,24]Pentacos A[16,18,24]Trien]-15′-One 13′,13′-Dioxide] | 107 | 2.08 | – | 4340
CC(C)O[C@H]1/C=C/C[C@H](C)[C@@H](C)S(=O)(=O)NC(=O)c2ccc3c(c2)N(C[C@@H]2CC[C@H]21)C[C@@]1(CCCc2cc(Cl)ccc21)CO3 [Example 43, (1S,3′R,6′R,7′S,8′E,11′S,12′R)-6-Chloro-11′,12′-Dimethyl-7′-(1-Methylethoxy)-3,4-Dihydro-2H,15′H-Spiro[Naphthalene-1,22′-[20]Oxa[13]Thia[1,14]Diazatetracyclo[14.7.2.0^3,6.0^19,24]Pentacos A[8,16,18,24]Tetraen]-15′-One-13′,13′-Dioxide] | 130 | 1.75 | – | 902
C[C@H]1C/C=C/[C@H](O)[C@@H]2CC[C@H]2CN2C[C@@]3(CCCc4cc(Cl)ccc43)COc3ccc(cc32)C(=O)NS(=O)(=O)[C@@H]1CC1CC1 (single isomer, unassigned) [Example 61] | 68.7 | 2.67 | 1320 | –
C[C@H]1C/C=C/[C@H](O)[C@@H]2CC[C@H]2CN2C[C@@]3(CCCc4cc(Cl)ccc43)COc3ccc(cc32)C(=O)NS(=O)(=O)C1 (single isomer, unassigned) [Example 29] | 458 | 9.44 | 5580 | –
COCCO[C@H]1/C=C/CC[C@@H](C)S(=O)(=O)NC(=O)c2ccc3c(c2)N(C[C@@H]2CC[C@H]21)C[C@@]1(CCCc2cc(Cl)ccc21)CO3 [Example 76, (1S,3′R,6′R,7′S,8′E,12′R)-6-Chloro-7′-(2-Methoxyethoxy)-12′-Methyl-3,4-Dihydro-2H,15′H-Spiro[Naphthalene-1,22′-[20]Oxa[13]Thia[1,14]Diazatetracyclo[14.7.2.0^3,6.0^19,24]Pentacos A[8,16,18,24]Tetraen]-15′-One 13′,13′-Dioxide] | 77.3 | 1.12 | – | 668
CC1(C)C/C=C/[C@H](O)[C@@H]2CC[C@H]2CN2C[C@@]3(CCCc4cc(Cl)ccc43)COc3ccc(cc32)C(=O)NS(=O)(=O)C1 [Example 1, (1S,3′R,6′R,7′S,8′E)-6-Chloro-7′-Hydroxy-11′,11′-Dimethyl-3,4-Dihydro-2H,15′H-Spiro[Naphthalene-1,22′-[20]Oxa[13]Thia[1,14]Diazatetracyclo[14.7.2.0^3,6.0^19,24]Pentacos A[8,16,18,24]Tetraen]-15′-One 13′,13′-Dioxide] | 163 | 0.852 | – | 1880
CC[C@@H]1[C@@H](C)C/C=C/[C@H](OC)[C@@H]2CC[C@H]2CN2C[C@@]3(CCCc4cc(Cl)ccc43)COc3ccc(cc32)C(=O)NS1(=O)=O [Example 25, (1S,3′R,6′R,7′S,8′E,11′S,12′R)-6-Chloro-12′-Ethyl-7′-Methoxy-11′-Methyl-3,4-Dihydro-2H,15′H-Spiro[Naphthalene-1,22′-[20]Oxa[13]Thia[1,14]Diazatetracyclo[14.7.2.0^3,6.0^19,24]Pentacosa[8,16,18,24]Tetraen]-15′-One 13′,13′-Dioxide] | 77.9 | 0.542 | – | 404
CCC[C@@H]1[C@@H](C)C/C=C/[C@H](O)[C@@H]2CC[C@H]2CN2C[C@@]3(CCCc4cc(Cl)ccc43)COc3ccc(cc32)C(=O)NS1(=O)=O (single isomer, unassigned) [Example 69] | 425 | 8.66 | 2710 | –
C[C@@H]1CCC[C@H](O)[C@@H]2CC[C@H]2CN2C[C@@]3(CCCc4cc(Cl)ccc43)COc3ccc(cc32)C(=O)NS(=O)(=O)[C@@H]1C (single isomer, unassigned) [Example 35] | 84.3 | 0.955 | 723 | –

Stronger by IC50 [1], values ahead:

IC50 [1] [nM] | IC50 [3] [nM] | SMILES | IC50 ([2]; 16 h) [nM] | IC50 ([2]; Homo sapiens, OPM-2, 16 h) [nM]
61.5 | 0.492 | C[C@H]1C/C=C/[C@H](O)[C@@H]2CC[C@H]2CN2C[C@@]3(CCCc4cc(Cl)ccc43)COc3ccc(cc32)C(=O)NS(=O)(=O)[C@@H]1CC1CC1 (single isomer, unassigned) [Example 59] | 247 | –
57.5 | 0.447 | C[C@@H]1[C@@H](C)CCC[C@H](O)[C@@H]2CC[C@H]2CN2C[C@@]3(CCCc4cc(Cl)ccc43)COc3ccc(cc32)C(=O)NS1(=O)=O [Example 6, (1S,3′R,6′R,7′S,11′S,12′R)-6-Chloro-7′-Hydroxy-11′,12′-Dimethyl-3,4-Dihydro-2H,15′H-Spiro[Naphthalene-1,22′-[20]Oxa[13]Thia[1,14]Diazatetracyclo[14.7.2.0^3,6.0^19,24]Pentacos A[16,18,24]Trien]-15′-One 13′,13′-Dioxide] | – | 394
46.2 | 0.317 | CC(C)[C@@H]1[C@H](C)C/C=C/[C@H](O)[C@@H]2CC[C@H]2CN2C[C@@]3(CCCc4cc(Cl)ccc43)COc3ccc(cc32)C(=O)NS1(=O)=O (single isomer, unassigned) [Example 49] | 184 | –
29.1 | 0.153 | COCCO[C@H]1/C=C/C[C@@H](C)[C@@H](C(C)C)S(=O)(=O)NC(=O)c2ccc3c(c2)N(C[C@@H]2CC[C@H]21)C[C@@]1(CCCc2cc(Cl)ccc21)CO3 [Example 54, (1S,3′R,6′R,7′S,8′E,11′R,12′R)-6-Chloro-7′-(2-Methoxyethoxy)-11′-Methyl-12′-(1-Methylethyl)-3,4-Dihydro-2H,15′H-Spiro[Naphthalene-1,22′-[20]Oxa[13]Thia[1,14]Diazatetracyclo[14.7.2.0^3,6.0^19,24]Pentacosa[8,16,18,24]Tetraen]-15′-One 13′,13′-Dioxide] | – | 131
26.5 | 0.38 | C[C@@H]1C/C=C/[C@H](O)[C@@H]2CC[C@H]2CN2C[C@@]3(CCCc4cc(Cl)ccc43)COc3ccc(cc32)C(=O)NS(=O)(=O)C1 (single isomer, unassigned) [Example 30] | 161 | –
20.1 | 0.153 | CC[C@@H]1[C@@H](C)C/C=C/[C@H](O)[C@@H]2CC[C@H]2CN2C[C@@]3(CCCc4cc(Cl)ccc43)COc3ccc(cc32)C(=O)NS1(=O)=O (single isomer, unassigned) [Example 24] | – | 125
